{
  "source": "patent US12064398B2",
  "about": "“Parenteral formulations” (Jazz Pharmaceuticals Research UK Limited, priority 2016, dated 2024)",
  "test": "Solubility screening of CBD in solvents/diluents/surfactants",
  "assay_type": "physicochemical",
  "procedure": "[…] All the vials were sonicated tor 5 minutes and then left on a roller mixer, mixing for 48 hours. The roller mixer was covered with aluminium foil to prevent light exposure.\nAfter 48 hours, all samples were centrifuged, and the supernatants taken (250 or 500 μL) using a Gilson pipette and added into a 10 ml volume flask. Methanol was used to make up the volume and the samples were tested by HPLC. Sample numbers 5, 9 and 10 were assayed using visual observation as the amount of API that could be added was so high.",
  "data": [
    {"smiles": "C=C(C)[C@@H]1CCC(C)=C[C@H]1c1c(O)cc(CCCCC)cc1O", "note": "[CBD, cannabidiol]", "values": [
      {"measurement": "ASSAY CBD", "setting": "Crodosal HS (0.5% w/v), HPLC", "value": 2.6529, "unit": "mg/mL"},
      {"measurement": "ASSAY CBD", "setting": "Crodosal HS (1% w/v), HPLC", "value": 5.4462, "unit": "mg/mL"},
      {"measurement": "ASSAY CBD", "setting": "Crodosal HS (2% w/v), HPLC", "value": 5.0344, "unit": "mg/mL"},
      {"measurement": "ASSAY CBD", "setting": "Crodosal HS (3% w/v), HPLC", "value": 6.3465, "unit": "mg/mL"},
      {"measurement": "ASSAY CBD", "setting": "Crodosal HS (4% w/v), HPLC", "value": 7.5569, "unit": "mg/mL"},
      {"measurement": "ASSAY CBD", "setting": "Crodosal HS (5% w/v), HPLC", "value": 7.9983, "unit": "mg/mL"},
      {"measurement": "ASSAY CBD", "setting": "ETOH (0.5% v/v), HPLC", "value": 0.0496, "unit": "mg/mL"},
      {"measurement": "ASSAY CBD", "setting": "ETOH (1% v/v), HPLC", "value": 0.0426, "unit": "mg/mL"},
      {"measurement": "ASSAY CBD", "setting": "ETOH (3% v/v), HPLC", "value": 0.0054, "unit": "mg/mL"},
      {"measurement": "ASSAY CBD", "setting": "ETOH (5% v/v), HPLC", "value": 0.0244, "unit": "mg/mL"},
      {"measurement": "ASSAY CBD", "setting": "ETOH (100% v/v), visual observation", "value": ">1000", "unit": "mg/mL"},
      {"measurement": "ASSAY CBD", "setting": "Glucose (5% w/v), HPLC", "value": 0.0008, "unit": "mg/mL"},
      {"measurement": "ASSAY CBD", "setting": "Glucose (10% w/v), HPLC", "value": 0.2379, "unit": "mg/mL"},
      {"measurement": "ASSAY CBD", "setting": "Glycerol (10% v/v), HPLC", "value": 0.0029, "unit": "mg/mL"},
      {"measurement": "ASSAY CBD", "setting": "Glycerol (20% v/v), HPLC", "value": 0.0437, "unit": "mg/mL"},
      {"measurement": "ASSAY CBD", "setting": "Glycerol (40% v/v), HPLC", "value": 0.0859, "unit": "mg/mL"},
      {"measurement": "ASSAY CBD", "setting": "Mannitol (5% w/v), HPLC", "value": 0.0009, "unit": "mg/mL"},
      {"measurement": "ASSAY CBD", "setting": "Mannitol (10% w/v), HPLC", "value": 0.0148, "unit": "mg/mL"},
      {"measurement": "ASSAY CBD", "setting": "PEG400 (5% v/v), HPLC", "value": 0.1596, "unit": "mg/mL"},
      {"measurement": "ASSAY CBD", "setting": "PEG400 (15% v/v), HPLC", "value": 0.1946, "unit": "mg/mL"},
      {"measurement": "ASSAY CBD", "setting": "PEG400 (25% v/v), HPLC", "value": 0.1617, "unit": "mg/mL"},
      {"measurement": "ASSAY CBD", "setting": "PEG400 (100% v/v), visual observation", "value": ">400", "unit": "mg/mL"},
      {"measurement": "dissolution of the 10 mg of CBD added", "setting": "PEG400 and ethanol increased to 50% in water", "value": "did not dissolve completely"},
      {"measurement": "ASSAY CBD", "setting": "PVP K12 (1% w/v), HPLC", "value": 0.0615, "unit": "mg/mL"},
      {"measurement": "ASSAY CBD", "setting": "PVP K12 (2% w/v), HPLC, high assay result probably due to sampling problem", "value": 0.1746, "unit": "mg/mL"},
      {"measurement": "ASSAY CBD", "setting": "PVP K12 (3% w/v), HPLC", "value": 0.0639, "unit": "mg/mL"},
      {"measurement": "ASSAY CBD", "setting": "PVP K12 (5% w/v), HPLC", "value": 0.0157, "unit": "mg/mL"},
      {"measurement": "ASSAY CBD", "setting": "PVP K17 (1% w/v), HPLC", "value": 0.0031, "unit": "mg/mL"},
      {"measurement": "ASSAY CBD", "setting": "PVP K17 (2% w/v), HPLC", "value": 0.0433, "unit": "mg/mL"},
      {"measurement": "ASSAY CBD", "setting": "PVP K17 (3% w/v), HPLC", "value": 0.0409, "unit": "mg/mL"},
      {"measurement": "ASSAY CBD", "setting": "PVP K17 (5% w/v), HPLC", "value": 0.2360, "unit": "mg/mL"},
      {"measurement": "ASSAY CBD", "setting": "Pluronic F68 (1% w/v), HPLC", "value": 0.1403, "unit": "mg/mL"},
      {"measurement": "ASSAY CBD", "setting": "Pluronic F68 (2% w/v), HPLC", "value": 0.5209, "unit": "mg/mL"},
      {"measurement": "ASSAY CBD", "setting": "Pluronic F68 (3% w/v), HPLC", "value": 0.5042, "unit": "mg/mL"},
      {"measurement": "ASSAY CBD", "setting": "Pluronic F68 (5% w/v), HPLC", "value": 1.0654, "unit": "mg/mL"},
      {"measurement": "ASSAY CBD", "setting": "Polysorbate 80 (0.5% w/v), HPLC", "value": 3.2600, "unit": "mg/mL"},
      {"measurement": "ASSAY CBD", "setting": "Polysorbate 80 (1% w/v), HPLC", "value": 6.0415, "unit": "mg/mL"},
      {"measurement": "ASSAY CBD", "setting": "Polysorbate 80 (3% w/v), HPLC", "value": 22.9779, "unit": "mg/mL"},
      {"measurement": "ASSAY CBD", "setting": "Polysorbate 80 (5% w/v), HPLC", "value": 30.6529, "unit": "mg/mL"},
      {"measurement": "ASSAY CBD", "setting": "Saline (0.45% w/v), HPLC", "value": 0.0021, "unit": "mg/mL"},
      {"measurement": "ASSAY CBD", "setting": "Saline (0.9% w/v), HPLC", "value": 0.0551, "unit": "mg/mL"},
      {"measurement": "ASSAY CBD", "setting": "Sucrose (5% w/v), HPLC", "value": 0.0202, "unit": "mg/mL"},
      {"measurement": "ASSAY CBD", "setting": "Sucrose (10% w/v), HPLC", "value": 0.0822, "unit": "mg/mL"},
      {"measurement": "ASSAY CBD", "setting": "Trehalose (5% w/v), HPLC", "value": 0.0600, "unit": "mg/mL"},
      {"measurement": "ASSAY CBD", "setting": "Trehalose (10% w/v), HPLC", "value": 0.0124, "unit": "mg/mL"},
      {"measurement": "ASSAY CBD", "setting": "t-butyl alcohol (TBA), (100% v/v), visual observation", "value": ">600", "unit": "mg/mL"}
    ]}
  ]
}
